Molecular target: T1, EtoX (TRAP transporter, periplasmic ethanolamine binding protein, MED193_10041)
T1 construct: full-length codon optimized, C-terminal His-tag
Test: microscale thermophoresis with purified recombinant EtoX
Design: species or system Phaeobacter sp. MED193

NCCO [ethanolamine]
Kd: 7.88 ± 1.88 µM
